Conditions: human, 0 h

Q: Which “Nitroglycerin Cumulative Flux” value does the source give for `O=[N+]([O-])OCC(CO[N+](=O)[O-])O[N+](=O)[O-]` [Nitroglycerin, nitroglycerin] here?
A: 0 μg/cm^2

From US8900194B2, “Microneedle devices and microneedle delivery apparatus” (3M Innovative Properties Company, priority 2002, dated 2014)
